Measured values as given in paper PMC5418314, “First-in-human phase I study of SOR-C13, a TRPV6 calcium channel inhibitor, in patients with advanced solid tumors” (Investigational New Drugs, 2017).
Ends that are not written are not given here.

How the values were obtained:
[1] = half-life in the blood compartment, dog; format: in vivo
[2] = half-life in the blood compartment, mice; format: in vivo
Phase I ECG assessment = format: in vivo, human
Source text: A Safety Monitoring Committee (SMC) oversaw the safety aspects of the study. Safety endpoints included: incidence of adverse events (AEs) and serious AEs (SAEs), withdrawals due to AEs, Dose Limiting Toxicities (DLTs), infusion reactions, deaths on study, vital signs, electrocardiogram (ECGs), clinical laboratory parameters and changes to the treatment regimen (dose delay, dose decrease) due to AEs. The National Cancer Institute (NCI) Common Terminology Criteria for Adverse Events (CTCAE) Version 4.0 was used to grade the severity of AEs.

[3] = test system: voltage-gated calcium channels; assay: voltage-gated calcium channel activity; format: biochemical
[4] = GLP toxicology study, daily IV bolus for 28 days, dog; format: in vivo, beagle dogs
Description: Anatomical pathology provided a No Observable Adverse Effect Level (NOAEL) of 200 mg/kg/day for rats. […] With results indicating antitumor activity in animal studies, a small toxicological footprint, a novel oncology target and a mechanism of action supported by the literature, SOR-C13 was formulated for intravenous injection (IV) for clinical evaluation. Here we present results of the ‘first-in-human’, Phase I clinical study evaluating SOR-C13 in adults with advanced solid tumors of epithelial origin refractory to all standard-of-care treatments.

KEFLHPSKVDLPR [SOR-C13]
half-life in the blood compartment [1]: < 5 min | half-life in the blood compartment [2]: < 5 min | mean changes in QTc intervals compared to pre-infusion values (Phase I ECG assessment; 90-min infusions (N = 18), Cycle 1): −4.2 to +12.7 msec | ECG abnormalities (Phase I ECG assessment; during the study): No clinically significant ECG abnormalities | QT or QTc prolongations above 500 msec (Phase I ECG assessment; during the study): no QT or QTc prolongations above 500 msec | QTc prolongation >60 msec compared to baseline or same-day pre-dose values (Phase I ECG assessment; during the study): no patient experienced QTc prolongation >60 msec | modulation of channel activity [3]: no modulation of channel activity | antigenicity [4]: no antigenicity | cardiovascular toxicity [4]: no cardiovascular toxicity | toxicity [4]: minimal toxicity
